Here are results for twelve compounds from ChEMBL document CHEMBL1201862, “PubChem BioAssay data set” (2004).

Test systems include ACHN; HL-60; IGROV-1; KM-20L2; KM12; M14; Malme-3M; SF-268; SF-539; SK-MEL-2; SK-MEL-5; U-251; UACC-62; HOP-62; SNB-75; MCF7; MDA-MB-435; MDA-N; NCI/ADR-RES.
What all share (assay): NCI tumour cell line growth inhibition, 48 h

SMILES strings stand for the structures.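 48-hour exposure; five concentrations; linearly interpolated endpoints. GI50 is the concentration that inhibits growth by half.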 Active and inactive are the calls of the source. Rule as the data show it: active = GI50 up to about 1.1 µM and inactive = higher. Where only a bound is given, the exact number is not on record here.

`CCOC(=O)c1cc(/C=C/C(C)=C/C(=O)OC)oc1-c1ccccc1`: the GI50 in the test on ACHN was 71.8 µM (inactive); in the test with HL-60 it was 46.2 µM (inactive); with IGROV-1 it was 66.7 µM (inactive); in the test on KM-20L2, 81.5 µM (inactive); in the test on KM12 it was 48.4 µM (inactive); in the test with M14 it was > 100 µM (inactive). Further, the GI50 was > 100 µM (inactive) in the test on Malme-3M; 40.8 µM (inactive) in the test on SF-268; 43.9 µM (inactive) in the test with SF-539; > 100 µM (inactive) in the test with SK-MEL-2; > 100 µM (inactive) with SK-MEL-5; 50 µM (inactive) in the test with U-251. Besides, the GI50 with UACC-62 is 41.3 µM (inactive).

With `CN(C)C(=Nc1nc(N(C)C)s[s+]1)N(C)C`, the GI50 in the test with ACHN, with HL-60, in the test on HOP-62, with IGROV-1, in the test on KM-20L2 and in the test on KM12 was > 100 µM (inactive) throughout. Moreover, the GI50 in the test with M14, in the test with SF-268, with SF-539, in the test on SK-MEL-2, with SK-MEL-5 and in the test on SNB-75 was > 100 µM (inactive) in each case. Further, the GI50 in the test on U-251 and in the test with UACC-62 was > 100 µM (inactive) in each case.

Take `COc1cc2c(cc1OC)C1c3ccccc3CCCN1CC2` (configuration not stated): the GI50 in the test on ACHN is > 100 µM (inactive); with HL-60, 41.3 µM (inactive); in the test on HOP-62, > 100 µM (inactive); in the test on IGROV-1, > 100 µM (inactive); with KM12, > 100 µM (inactive); in the test with M14, > 100 µM (inactive). Moreover, the GI50 in the test with MCF7, with MDA-MB-435, in the test with MDA-N, with Malme-3M, with NCI/ADR-RES and in the test with SF-268 was > 100 µM (inactive) each time. The GI50 in the test on SF-539, with SK-MEL-2, in the test on SK-MEL-5, in the test with SNB-75, in the test on U-251 and in the test with UACC-62 was > 100 µM (inactive) in each case.

Take `CCCn1c2ccccc2c2ccc3c(c21)C(=O)C=CC3=O`: the GI50 in the test on ACHN is 1.83 µM (inactive); with HL-60, 0.938 µM (active); with HOP-62 it was > 10 µM (inactive); in the test with IGROV-1 it was 3.31 µM (inactive); in the test on KM12 it was > 10 µM (inactive); in the test with M14 it was 2.18 µM (inactive). In addition, the GI50 is 2.19 µM (inactive) in the test with MCF7; 2.3 µM (inactive) with MDA-MB-435; 2.65 µM (inactive) in the test on MDA-N; 1.83 µM (inactive) in the test with Malme-3M; 2.9 µM (inactive) in the test on NCI/ADR-RES; > 6.12 µM (inactive) in the test on SF-268. Further, the GI50 is > 4.8 µM (inactive) in the test on SF-539; > 4.78 µM (inactive) in the test with SK-MEL-2; > 7.91 µM (inactive) in the test with SK-MEL-5; > 10 µM (inactive) with SNB-75; > 7.59 µM (inactive) in the test with U-251; 4.13 µM (inactive) in the test with UACC-62.

Regarding `Nc1nc(N)c(N=Nc2ccc([As](=O)(O)O)c(O)c2)c(N)n1`, the GI50 with ACHN is 49 µM (inactive); in the test on HL-60, 2.96 µM (inactive); in the test on HOP-62, 8.59 µM (inactive); in the test with IGROV-1 it was 4.61 µM (inactive); in the test on KM12, 28.8 µM (inactive); in the test on M14, 35.6 µM (inactive). The GI50 was 3.75 µM (inactive) in the test on MCF7; 0.82 µM (active) with MDA-MB-435; 0.839 µM (active) in the test on MDA-N; 79.1 µM (inactive) in the test on Malme-3M; > 100 µM (inactive) in the test with NCI/ADR-RES; 55.8 µM (inactive) in the test with SF-268. Besides, the GI50 in the test with SF-539 was 17.1 µM (inactive); in the test with SK-MEL-2, > 21.1 µM (inactive); in the test with SK-MEL-5, 20.3 µM (inactive); in the test on SNB-75, 11.5 µM (inactive); in the test on U-251, 22.9 µM (inactive); in the test with UACC-62, 31.5 µM (inactive).

With `CC(NC1=CC(=O)c2ncccc2C1=O)C(O)c1ccccc1` (configuration not stated), the GI50 is 7 µM (inactive) with ACHN; 3.44 µM (inactive) with HL-60; 4.83 µM (inactive) with HOP-62; 3.67 µM (inactive) in the test with IGROV-1; 7.67 µM (inactive) in the test with KM12; 2.57 µM (inactive) in the test with M14. In addition, the GI50 is 2.31 µM (inactive) with MCF7; 1.59 µM (inactive) in the test with MDA-MB-435; 1.58 µM (inactive) with MDA-N; 1.89 µM (inactive) with Malme-3M; 8.15 µM (inactive) in the test with NCI/ADR-RES; 12.2 µM (inactive) in the test on SF-268. The GI50 in the test on SF-539 is 6.04 µM (inactive); with SK-MEL-2, 3.55 µM (inactive); in the test with SK-MEL-5, 1.18 µM (inactive); in the test on SNB-75, 2.36 µM (inactive); in the test on U-251, 2.61 µM (inactive); in the test on UACC-62, 2.02 µM (inactive).

For the compound `C=CC/C(C(=O)OC)=C(/C(=O)OC)N(CCC)CCC`, the GI50 was 86.9 µM (inactive) in the test on ACHN; 23 µM (inactive) in the test on HL-60; > 100 µM (inactive) with HOP-62; > 100 µM (inactive) in the test on IGROV-1; > 100 µM (inactive) with KM12; > 100 µM (inactive) in the test on M14. Further, the GI50 is 63.2 µM (inactive) in the test with MCF7; > 100 µM (inactive) in the test with MDA-MB-435; > 100 µM (inactive) in the test on MDA-N; > 100 µM (inactive) in the test with Malme-3M; > 100 µM (inactive) in the test with NCI/ADR-RES; > 100 µM (inactive) in the test with SF-268. The GI50 with SF-539 was > 100 µM (inactive); with SK-MEL-2 it was > 100 µM (inactive); in the test on SK-MEL-5, > 100 µM (inactive); in the test on SNB-75 it was > 100 µM (inactive); in the test with U-251, 59.4 µM (inactive); in the test with UACC-62, > 100 µM (inactive).

In the case of `Cc1ccc(S(=O)(=O)OC2C3OC(C)(C)OC3OC2C(c2cc(O)c3c(c2O)C(=O)c2ccccc2C3=O)c2cc(O)c3c(c2O)C(=O)c2ccccc2C3=O)cc1` (configuration not stated), the GI50 in the test with ACHN, in the test on HL-60, with HOP-62, in the test with IGROV-1, in the test with KM12 and in the test on M14 was > 10 µM (inactive) in each case. Also, the GI50 with MCF7, in the test on MDA-MB-435, in the test on MDA-N, in the test on Malme-3M, in the test with NCI/ADR-RES and in the test with SF-268 was > 10 µM (inactive) in each case. For the same compound, the GI50 with SF-539, in the test on SK-MEL-2, with SK-MEL-5, in the test with SNB-75, in the test on U-251 and with UACC-62 was > 10 µM (inactive) each time.

As to `CCn1c2ccccc2c(=O)c2c(OC)ccc(OC)c21`, the GI50 in the test on ACHN is 35.9 µM (inactive); with HL-60, 29.6 µM (inactive); in the test with HOP-62, 54.3 µM (inactive); in the test with IGROV-1, 46.9 µM (inactive); in the test on KM-20L2, 92.5 µM (inactive); with KM12, 79.6 µM (inactive). For the same compound, the GI50 in the test with M14 was 79.8 µM (inactive); with Malme-3M, 68.5 µM (inactive); with SF-268 it was 83.9 µM (inactive); with SF-539 it was 68.1 µM (inactive); in the test with SK-MEL-2, 75.5 µM (inactive); with U-251 it was 64.6 µM (inactive). Moreover, in the test with UACC-62, the GI50 is 43.6 µM (inactive).

Consider `Nc1nccc(Nc2ccc(S(N)(=O)=O)cc2)n1`, for which the GI50 in the test on ACHN, in the test with HL-60, in the test with HOP-62, in the test on IGROV-1, in the test with KM12 and with M14 was > 100 µM (inactive) throughout. Also, the GI50 with MCF7, in the test on MDA-MB-435, in the test on MDA-N, in the test on Malme-3M, with NCI/ADR-RES and with SF-268 was > 100 µM (inactive) each time. Moreover, the GI50 in the test with SF-539, with SK-MEL-2, with SK-MEL-5, in the test with SNB-75, in the test on U-251 and in the test on UACC-62 was > 100 µM (inactive) each time.

With `CC(=O)c1c(C)cc2cccc(OC3OC(CO)C(O)C(O)C3O)c2c1O.CC1OC(O)C(O)C(O)C1O` (configuration not stated), the GI50 in the test on ACHN, with HL-60, in the test on HOP-62, in the test with IGROV-1, with KM12 and in the test with M14 was > 100 µM (inactive) throughout. Further, the GI50 in the test on MCF7, in the test on MDA-MB-435, with MDA-N, with Malme-3M, in the test with NCI/ADR-RES and with SF-268 was > 100 µM (inactive) each time. For the same compound, the GI50 in the test with SF-539, in the test with SK-MEL-2, in the test with SK-MEL-5, in the test on SNB-75, with U-251 and with UACC-62 was > 100 µM (inactive) each time.

Take `COc1ccc(/C=C/C(=O)/C=C/c2ccc(OC)cc2OC)c(OC)c1`: the GI50 is 6.61 µM (inactive) in the test with ACHN; 3.13 µM (inactive) with HL-60; 44.5 µM (inactive) with HOP-62; 10.1 µM (inactive) in the test with IGROV-1; 33.8 µM (inactive) in the test on KM12; 7.14 µM (inactive) in the test with M14. The GI50 in the test on MCF7 is 2.4 µM (inactive); in the test on MDA-MB-435, 2.41 µM (inactive); in the test with MDA-N, 2.22 µM (inactive); in the test on Malme-3M, 4.19 µM (inactive); with NCI/ADR-RES it was 8.02 µM (inactive); in the test on SF-268, 4.55 µM (inactive). For the same compound, the GI50 with SF-539 is 15.8 µM (inactive); in the test on SK-MEL-2 it was 1.33 µM (inactive); in the test with SK-MEL-5, 3.77 µM (inactive); in the test on SNB-75, 14.9 µM (inactive); with U-251, 4.67 µM (inactive); with UACC-62 it was 5.6 µM (inactive).
